Data published in US11708366B2, “Heteroaryl substituted spiropiperidinyl derivatives and pharmaceutical uses thereof” (Novartis AG, priority 2020, dated 2023).

Target: LTC4S (Homo sapiens (Human), UniProt Q16873)
Assay: Human whole blood HTRF assay (LTC4 release after calcium ionophore A23187)
Assay type: cell-based
Conditions: human whole blood HTRF IC50, human whole blood diluted 1:3, 4 h incubation, calcium ionophore A23187 stimulation, LTC4 by HTRF
Protocol: B. Human Whole Blood HTRF Assay
LTC4 synthase catalyzes the conversion of Leukotriene A4 (LTA4) to Leukotriene C4 (LTC4) in the presence of reduced glutathione (GSH) as a co-substrate. For testing the inhibition of LTC4S, compounds are prepared for either eight-point or sixteen-point dose response studies in 384-well Labcyte low dead volume (LDV) plates. For eight-point dose response studies, compounds are diluted 1:5 starting at 1 μM concentration in 90% DMSO. […] Compounds are studied in duplicates. Ten wells are filled with 90% DMSO which correspond to the stimulated and unstimulated control wells. […] The morning of the assay, whole blood is collected from three human donors. Donors must be non-smokers and must not have taken NSAIDs within the 48 hours prior to blood collection. The amount of blood collected per donor depends on the amount of compounds to be tested and the dose response format in which they are to be studied (about 8 mL of whole blood for either 22 compounds in 8-point dose response format or 11 compounds in 16-point dose response format). […] 50 μL of diluted blood are then dispensed into each assay plate well with pre-dispensed compounds and DMSO for the stimulated and unstimulated controls using a Thermo Scientific™ Multidrop™ Combi reagent dispenser, and incubated at 37° C. for 4 hours. Calcium ionophore A23187 is used to induce a rapid increase in intracellular levels of Ca^2+. The Ca^2+ functions as a universal second messenger in various immune cells, such as T cells, B cells and mast cells, and is used to induce degranulation and release of eicosanoids, including LTC4, by cells contained in the whole blood samples. […] All but the unstimulated control wells are subsequently stimulated by dispensing 1 μL of the 0.5 mg/mL calcium ionophore suspension using the Thermo Scientific™ Multidrop™ Combi reagent dispenser. Plates are incubated for 15 minutes at 37° C. Plates are then centrifuged at 300 g for 10 minutes at room temperature to pellet blood cells and stop the reaction. […] Plates are sealed and stored at −80° C.
In order to measure the amount of LTC4 released by cells in the human blood samples during calcium ionophore stimulation, supernatants are analyzed using the Cisbio LTC4 homogeneous time-resolved FRET (HTRF) kit (Cisbio #64LC4PEH). […] Ten serially diluted standard curve solutions are also dispensed in duplicate into each plate as instructed in the protocol. Blank controls and cryptate control wells are also prepared. Then, 5 μL of anti-LTC4-d2 working solution are dispensed into all the wells, but the cryptate control wells. Subsequently, 5 μL of anti-LTC4-Eu3+ cryptate working solution are dispensed into all the wells. Plates are then covered with a lid and incubated at room temperature for one hour with gentle orbital shaking (˜450 rpm). […] HTRF ratios are calculated for each well by dividing the 665 nm intensity by the 620 nm intensity, and multiplying the resulting ratio by 10,000. LTC4 standard curves are interpolated for each plate and used to convert the HTRF ratio readouts into the amount of LTC4 present in each well (in ng/mL). Parametric curve fitting is used to obtain inhibition curves and IC50 values.

Row | SMILES | IC50 [nM]
1 | Cn1nc(-n2cc(C(F)(F)F)cn2)cc(N2CCC3(CCCC(=O)N3c3ccc(F)c(F)c3)CC2)c1=O [Example 14, 1-(3,4-difluorophenyl)-9-(2-methyl-3-oxo-6-(4-(trifluoromethyl)-1H-pyrazol-1-yl)-2,3-dihydropyridazin-4-yl)-1,9-diazaspiro[5.5]undecane-2-one] | 1
2 | O=C1CCCC2(CCN(c3cc(OC4CCOCC4)nn(Cc4ccccc4)c3=O)CC2)N1c1ccc(F)c(F)c1 [Example 15a, 9-(2-benzyl-3-oxo-6-((tetrahydro-2H-pyran-4-yl)oxy)-2,3-dihydropyridazin-4-yl)-1-(3,4-difluorophenyl)-1,9-diazaspiro[5.5]undecan-2-one] | 1
3 | O=C1CCCC2(CCN(c3cc(=O)n(Cc4ccccc4)nc3OC3CCOCC3)CC2)N1c1ccc(F)c(F)c1 [Example 15b, 9-(1-benzyl-6-oxo-3-((tetrahydro-2H-pyran-4-yl)oxy)-1,6-dihydropyridazin-4-yl)-1-(3,4-difluorophenyl)-1,9-diazaspiro[5.5]undecan-2-one] | 180
4 | O=C1CCCC2(CCN(c3cc(OC4CCOCC4)n[nH]c3=O)CC2)N1c1ccc(F)c(F)c1 [Example 16, 1-(3,4-difluorophenyl)-9-(3-oxo-6-((tetrahydro-2H-pyran-4-yl)oxy)-2,3-dihydropyridazin-4-yl)-1,9-diazaspiro[5.5]undecan-2-one] | 16
5 | Cn1nc(OC2CCOCC2)cc(N2CCC3(CCCC(=O)N3c3ccc(F)c(F)c3)CC2)c1=O [Example 17, 1-(3,4-difluorophenyl)-9-(2-methyl-3-oxo-6-((tetrahydro-2H-pyran-4-yl)oxy)-2,3-dihydropyridazin-4-yl)-1,9-diazaspiro[5.5]undecan-2-one] | 9

Same assay, conditions: human whole blood diluted 1:3, 4 h incubation, calcium ionophore A23187 stimulation, LTC4 by HTRF; read-out: human whole blood HTRF IC50

Row | SMILES | IC50 [nM]
6 | Nc1nc(OC2CCOCC2)cc(N2CCC3(CC2)C[C@H](F)CC(=O)N3c2ccc(F)c(F)c2)n1 (single isomer, unassigned) [Example 116b, (S)-9-(2-amino-6-((tetrahydro-2H-pyran-4-yl)oxy)pyrimidin-4-yl)-1-(3,4-difluorophenyl)-4-fluoro-1,9-diazaspiro[5.5]undecan-2-one, or (R)-9-(2-amino-6-((tetrahydro-2H-pyran-4-yl)oxy)pyrimidin-4-yl)-1-(3,4-difluorophenyl)-4-fluoro-1,9-diazaspiro[5.5]undecan-2-one] | 33
7 | O=C1CCCC2(CCN(c3cc(N4CC5(CCC5)C4)nn(Cc4ccccc4)c3=O)CC2)N1c1ccc(F)c(F)c1 [Example 10, 9-(2-benzyl-3-oxo-6-(2-azaspiro[3.3]heptan-2-yl)-2,3-dihydropyridazin-4-yl)-1-(3,4-difluorophenyl)-1,9-diazaspiro[5.5]undecan-2-one] | 5
8 | O=C1CCCC2(CCN(c3cc(-c4ccc(F)cc4)n[nH]c3=O)CC2)N1c1ccc(F)c(F)c1 [Example 11, 1-(3,4-difluorophenyl)-9-(6-(4-fluorophenyl)-3-oxo-2,3-dihydropyridazin-4-yl)-1,9-diazaspiro[5.5]undecane-2-one] | 6
9 | O=C1CCCC2(CCN(c3cc(-n4cc(C(F)(F)F)cn4)n[nH]c3=O)CC2)N1c1ccc(F)c(F)c1 [Example 12, 1-(3,4-difluorophenyl)-9-(3-oxo-6-(4-(trifluoromethyl)-1H-pyrazol-1-yl)-2,3-dihydropyridazin-4-yl)-1,9-diazaspiro [5.5] undecane-2-one] | 2
10 | O=C1CCCC2(CCN(c3cc(OCC(F)(F)F)n[nH]c3=O)CC2)N1c1ccc(F)c(F)c1 [Example 13, 1-(3,4-difluorophenyl)-9-(3-oxo-6-(2,2,2-trifluoroethoxy)-2,3-dihydropyridazin-4-yl)-1,9-diazaspiro[5.5]undecan-2-one] | 36
11 | O=C1CCCC2(CCN(c3nc(C4=CCC(F)(F)CC4)c[nH]c3=O)CC2)N1c1ccc(F)c(F)c1 [Example 18, 9-(6-(4,4-difluorocyclohex-1-en-1-yl)-3-oxo-3,4-dihydropyrazin-2-yl)-1-(3,4-difluorophenyl)-1,9-diazaspiro[5.5]undecane-2-one] | 2
